In ChEMBL document CHEMBL5050844 (2019):

Experiments:
[1] = Induction of anti-CD3/CD28 antibodies-stimulated human T cell activation at 1 uM assessed fold increase in IL-2 secretion measured by ELISA assay; type: functional, T cell line
[2] = target: E3 ubiquitin-protein ligase CBL-B (Homo sapiens, UniProt Q13191); test: Inhibition of N-terminal Avi-tagged human CBL-B (36 to 427 residues) incubated with 60 nM Src kinase for 1.5 hrs followed by incubation with fluorescently labeled UbcH5B-Ub for 1 hr and measured by TR-FRET assay; type: single protein
[3] = Induction of anti-CD3/CD28 antibodies-stimulated human T cell activation at 1 uM assessed fold increase in CD25 expression measured by ELISA assay; type: functional, T cell line
[4] = Induction of anti-CD3 antibodies-stimulated human T cell activation at 8 uM assessed fold increase in CD25 expression measured by ELISA assay; type: functional, T cell line; note: reference of the scale not given here
[5] = Induction of anti-CD3 antibodies-stimulated human T cell activation at 1 uM assessed fold increase in CD25 expression measured by ELISA assay; type: functional, T cell line; note: reference of the scale not given here
[6] = Induction of anti-CD3/CD28 antibodies-stimulated human T cell activation at 0.3 uM assessed fold increase in CD25 expression measured by ELISA assay; type: functional, T cell line
[7] = Induction of anti-CD3/CD28 antibodies-stimulated human T cell activation at 4 uM assessed fold increase in IL-2 secretion measured by ELISA assay; type: functional, T cell line
[8] = Induction of anti-CD3 antibodies-stimulated human T cell activation at 8 uM assessed fold increase in IL-2 secretion measured by ELISA assay; type: functional, T cell line; note: reference of the scale not given here
[9] = Induction of anti-CD3/CD28 antibodies-stimulated human T cell activation at 4 uM assessed fold increase in CD25 expression measured by ELISA assay; type: functional, T cell line
[10] = Induction of anti-CD3/CD28 antibodies-stimulated human T cell activation at 0.3 uM assessed fold increase in IL-2 secretion measured by ELISA assay; type: functional, T cell line
[11] = Induction of anti-CD3 antibodies-stimulated human T cell activation at 1 uM assessed fold increase in IL-2 secretion measured by ELISA assay; type: functional, T cell line; note: reference of the scale not given here

Sequence of E3 ubiquitin-protein ligase CBL-B (Q13191 whole entry, the tested form may be a part): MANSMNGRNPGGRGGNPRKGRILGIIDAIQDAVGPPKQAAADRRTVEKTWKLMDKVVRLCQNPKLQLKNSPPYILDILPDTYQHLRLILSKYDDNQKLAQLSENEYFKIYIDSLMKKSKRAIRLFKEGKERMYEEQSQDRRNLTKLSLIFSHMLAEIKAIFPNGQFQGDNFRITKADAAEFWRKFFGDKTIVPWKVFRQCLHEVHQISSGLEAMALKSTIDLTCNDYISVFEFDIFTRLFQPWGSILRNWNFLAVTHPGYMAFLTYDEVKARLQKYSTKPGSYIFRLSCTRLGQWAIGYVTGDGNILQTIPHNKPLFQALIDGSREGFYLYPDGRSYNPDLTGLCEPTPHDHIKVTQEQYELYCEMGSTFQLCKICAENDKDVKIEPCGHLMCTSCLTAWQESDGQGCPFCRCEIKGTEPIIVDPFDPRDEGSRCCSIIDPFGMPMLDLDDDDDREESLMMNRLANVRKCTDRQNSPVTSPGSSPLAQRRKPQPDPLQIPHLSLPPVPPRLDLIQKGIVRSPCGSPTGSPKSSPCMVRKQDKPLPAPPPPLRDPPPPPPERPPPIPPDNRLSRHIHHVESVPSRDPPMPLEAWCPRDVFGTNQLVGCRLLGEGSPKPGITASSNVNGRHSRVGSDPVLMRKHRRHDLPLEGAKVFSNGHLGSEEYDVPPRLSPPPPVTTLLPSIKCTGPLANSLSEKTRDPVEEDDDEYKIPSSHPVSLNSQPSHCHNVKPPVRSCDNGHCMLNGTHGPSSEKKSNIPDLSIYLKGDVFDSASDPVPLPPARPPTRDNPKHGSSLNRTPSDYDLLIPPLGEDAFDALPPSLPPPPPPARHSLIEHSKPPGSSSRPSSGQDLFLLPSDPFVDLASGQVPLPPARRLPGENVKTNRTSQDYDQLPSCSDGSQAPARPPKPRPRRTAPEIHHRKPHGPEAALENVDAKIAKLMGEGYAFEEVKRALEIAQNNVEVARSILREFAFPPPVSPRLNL

Structure (SMILES) | IC50 [2] | fold change (FC) [1] | fold change (FC) [3] | fold change (FC) [4] | fold change (FC) [5] | fold change (FC) [6] | fold change (FC) [7] | fold change (FC) [8] | fold change (FC) [9] | fold change (FC) [10] | fold change (FC) [11]
C[C@@H](c1cccc(N2Cc3c(cccc3C(F)(F)F)C2=O)c1)[C@@H](F)c1nncn1C (single isomer, unassigned) | < 0.1 µM | 1.01 | 1.01 | >=1.001 | 0.601 | 1.01 | 2.51 | >=0.201 | 1.01 | 1.01 | 0.051
Cn1cnnc1CC(C)(C)c1cccc(NC(=O)c2cc(C(=O)N3CC[C@H](O)C3)cc(C(F)(F)F)n2)c1 | < 0.1 µM | 2.51 | 1.01 | >=1.001 | 0.801 | 1.01 | 5 | >=0.201 | 1.01 | 1.01 | 0.101
Cc1cc(C(=O)Nc2cccc(C3(Cc4nncn4C)COC3)c2)nc(C2CCC2)n1 | < 0.1 µM | 5 | 1.01 | >=1.001 | 0.801 | 1.01 | >=7.5 | >=0.201 | 1.31 | 1.01 | 0.151
Cn1cnnc1CC(C)(C)c1cccc(NC(=O)c2cccc(C(F)(F)F)n2)c1 | < 0.1 µM | 2.51 | 1.01 | >=1.001 | 0.801 | 1.01 | >=7.5 | >=0.201 | 1.31 | 1.01 | >=0.201
Cc1cc(C(=O)Nc2cccc(C3(Cc4nncn4C)COC3)c2)nc(C2CC2)c1 | < 0.1 µM | >=7.5 | 1.31 | >=1.001 | >=1.001 | 1.31 | >=7.5 | >=0.201 | 1.51 | 5 | >=0.201
Cc1cc(C(=O)Nc2cccc([C@H](C)Cc3nocc3C)c2)nc(C2CC2)n1 | < 0.1 µM | 2.51 | 1.01 | >=1.001 | 0.801 | 1.01 | 5 | >=0.201 | 1.01 | 1.01 | 0.051
C[C@H](Cc1nncn1C)c1cccc(NC(=O)c2cc3cc(N4CCN(C)C(=O)C4)ccc3cn2)c1.O=C(O)C(F)(F)F | < 0.1 µM | 5 | 1.31 | >=1.001 | <=0.6 | 1.31 | >=7.5 | >=0.201 | 1.51 | 5 | >=0.201
C[C@H](Sc1nncn1C)c1cccc(NC(=O)c2cc(C3CC3)cc(C(F)(F)F)n2)c1 | < 0.1 µM | 1.01 | 1.01 | >=1.001 | 0.801 | 1.01 | 2.51 | 0.101 | 1.01 | 1.01 | <=0.05

The next lines start with results.

IC50 [2] | Structure (SMILES) | fold change (FC) [1] | fold change (FC) [3] | fold change (FC) [4] | fold change (FC) [5] | fold change (FC) [6] | fold change (FC) [7] | fold change (FC) [8] | fold change (FC) [9] | fold change (FC) [10] | fold change (FC) [11]
< 0.1 µM | Cn1cnnc1CC1(c2cccc(N3Cc4c(cc(CO)cc4C(F)(F)F)C3=O)c2)COC1 | 5 | 1.31 | 0.601 | 0.601 | 1.01 | >=7.5 | 0.051 | 1.51 | 2.51 | 0.101
< 0.1 µM | C[C@H]1CN(C)CCN1c1cc2c(c(C(F)(F)F)c1)CN(c1cccc([C@@](C)(F)C(F)(F)c3nncn3C)c1)C2=O | 5 | 1.01 | >=1.001 | >=1.001 | 1.01 | >=7.5 | >=0.201 | 1.31 | 1.01 | 0.101
< 0.1 µM | C[C@H](Cc1nncn1C)c1cccc(N2Cc3c(cc(C(C)(C)O)cc3C(F)(F)F)C2=O)c1 | 2.51 | 1.01 | 0.801 | >=1.001 | >=1.76 | 5 | 0.151 | 1.31 | >=7.5 | 0.101
< 0.1 µM | Cn1cnnc1CC1(c2cccc(N3Cc4c(cccc4C(F)(F)F)C3=O)c2)COC1 | 2.51 | 1.01 | >=1.001 | 0.801 | 1.01 | >=7.5 | 0.101 | 1.31 | 1.01 | 0.051
< 0.1 µM | C[C@@H](c1cc2c(c(C(F)(F)F)c1)CN(c1cccc([C@@](C)(F)C(F)(F)c3nncn3C)c1)C2=O)N1CC[C@H](F)C1 | >=7.5 | 1.51 | >=1.001 | >=1.001 | 1.31 | >=7.5 | >=0.201 | 1.51 | >=7.5 | >=0.201
< 0.1 µM | Cn1cnnc1CC1(c2cccc(N3Cc4c(cc(CN5CC(C)(C#N)C5)cc4C(F)(F)F)C3=O)c2)COC1 | >=7.5 | 1.31 | <=0.6 | 0.601 | 1.01 | >=7.5 | 0.051 | 1.51 | 2.51 | 0.151
< 0.1 µM | C[C@@H](c1cc2c(c(C(F)(F)F)c1)CN(c1cccc(C3(Cc4nncn4C)COC3)c1)C2=O)N1CCC(F)(F)C1 | >=7.5 | 1.31 | >=1.001 | >=1.001 | 1.31 | >=7.5 | >=0.201 | 1.31 | 2.51 | 0.151
< 0.1 µM | Cn1cnnc1CC1(c2cccc(N3Cc4c(cc(CN5CCCC5=O)cc4C(F)(F)F)C3=O)c2)COC1 | 1.01 | 1.01 | >=1.001 | >=1.001 | 1.01 | 2.51 | >=0.201 | 1.01 | 1.01 | 0.151
